Source: US6573378B1, “Antiviral guanine derivatives” (Novartis International Pharmaceutical Ltd., priority 1983, dated 2003)
Converted amounts (≈) assume the structure as drawn. Counter-ions that a name gives are not always drawn.

Columns and labels:
[1] = system: Herpes simplex type 1 virus (HFEM strain); assay: Plaque reduction, Herpes simplex type 1 virus (HFEM strain) in Vero cells (Method 1); format: cell-based; conditions: 50% reduction in number of virus plaques, 4 days at 37° C.; for IC50: Human alphaherpesvirus 1, Vero, 96 h, read-out: PDD50 Herpes simplex type 1 virus HFEM strain in Vero cells
Description: (§1) Vero (Arican Green Monkey Kidney) cells were grown to confluence in 24 well multidishes, each well being 1.6 cm in diameter. The cells were infected with Herpes simplex type 1 virus (HFEM strain) and overlaid with 0.5 ml of 0.9% agarose (w/v) in maintenance medium. The test compound, prepared in maintenance medium in concentrations ranging from 100 to 0.3 μg/ml in half-log dilution steps, was added in 0.5 ml volume. The virus infected cultures were then incubated at 37° C. for 4 days before fixing in 4% formaldehyde solution and staining with carbol fuchsin.

[2] = system: Herpes simplex type 1 virus, strain SC16; assay: Virus cytopathic effect (CPE) reduction, Herpes simplex type 1 virus strain SC16 in MRC-5 cells (Method 2); format: cell-based; conditions: 50% reduction of virus CPE, 3 days at 37° C.; for IC50: Human alphaherpesvirus 1, SC16, MRC5, 72 h, read-out: PDD50 Herpes simplex type 1 virus SC16 strain in MRC-5 cells
Description: (§2) MRC-5 cells were infected in suspension with Herpes simplex type 1 virus, strain SC16. The infected cell suspension was dispensed (0.1 ml) in 96 well microtitre plates containing the test drugs in maintenance medium in concentrations ranging from 100 to 0.03 μg/ml in half-log dilution steps (0.1 ml per well). The plates were then icubated at 37° C. for 3 days when the virus cytopathic effect (CPE) in the control wells reached 100%. The plates were fixed in 4% formaldehyde solution and stained with carbol fuchsin. […] Plates using uninfected cells were run in parallel to determine the minimum concentration of test compound which caused cytotoxicity (MTD).

[3] = system: Herpes simplex type 2 virus (MS strain); assay: Plaque reduction, Herpes simplex type 2 virus (MS strain) in Vero cells (Method 1); format: cell-based; conditions: Human alphaherpesvirus 2, Method 1, plaque reduction, read-out: PDD50 Herpes simplex type 2 virus MS strain in Vero cells
Description: as §1
(§3) Compounds were also tested against Herpes simplex type 2 virus (MS strain) in Vero cells using Method 1 and in MRC-5 cells using Method 2. In the latter test, the incubation time was reduced to 24 hours.

[4] = system: Herpes simplex type 2 virus (MS strain); assay: Virus CPE reduction, Herpes simplex type 2 virus (MS strain) in MRC-5 cells (Method 2, 24 hours incubation); format: cell-based; conditions: Human alphaherpesvirus 2, MRC5, Method 2, CPE reduction, incubation 24 hours, read-out: PDD50 Herpes simplex type 2 virus MS strain in MRC-5 cells
Description: as §2, §3

[5] = Blood concentration of 9-(4-hydroxy-3-hydroxymethylbut-1-yl)guanine in mice after oral administration of derivatives (Method 3); format: in vivo; conditions: female Balb/C mice, oral gavage 0.2 mmoles/kg of administered compound, blood 15 minutes later, pooled from three mice; analyte 9-(4-hydroxy-3-hydroxymethylbut-1-yl)guanine
Description: Compounds were administered by oral gavage (0.2 mmoles/kg in 0.1 ml of 1% carboxymethyl cellulose) to 20 g female Balb/C mice which had been starved for 18 hours. Fifteen minutes later, blood was collected from three mice by cardiac puncture using heparinised syringes. Equal aliquots were pooled and an equal volume of 16% trichloroacetic acid added. Following centrifugation (8,500 g) to remove precipitated proteins, the resulting mixture was analysed by high performance liquid chromatography using a C18 Nova-Pak cartridge eluted with Buffer A (50 mM NaH2PO4, pH4.6) and Buffer B (10% Buffer A, 10% water, 80% methanol) in a gradient from 1% to 95% Buffer B. 9-(4-Hydroxy-3-hydroxymethylbut-1-yl)guanine was assayed with a Pye-Unicam PU4021 u.v. detector set at 254 nm.

IC50 [1] [µg/mL] | IC50 [3] [µg/mL] | melting point [°C] | Compound | IC50 [2] [µg/mL] | IC50 [4] [µg/mL] | also measured
1.3 (≈ 5.13 µM) | 2.3 (≈ 9.08 µM) | – | Nc1nc2c(ncn2CCC(CO)CO)c(=O)[nH]1 [Example 4, 9-(4-Hydroxy-3-hydroxymethylbut-1-yl)guanine] | 0.9 (≈ 3.55 µM) | 0.6 (≈ 2.37 µM) | –
2.2 | – | – | Nc1nc2c(ncn2CCC(CO)CO)c(=O)[nH]1.[Na] [Example 12, 9-(4-Hydroxy-3-hydroxymethylbut-1-yl)guanine, Sodium Salt] | 0.7 | – | –
– | – | – | Nc1nc2c(ncn2CCC(CO)CO)c(=O)[nH]1 [Example 13, 9-(4-Hydroxy-3-hydroxymethylbut-1-yl)guanine, Potassium Salt] | – | – | PDD50 Herpes simplex type 1 virus HFEM strain in Vero cells ([1]; Potassium Salt): 1.7 µg/mL; PDD50 Herpes simplex type 1 virus SC16 strain in MRC-5 cells ([2]; Potassium Salt): 0.7 µg/mL
> 100 | 63 (≈ 236 µM) | 117 to 119 | COc1nc(N)nc2c1ncn2CCC(CO)CO [Example 15, 2-Amino-9-(4-hydroxy-3-hydroxymethylbut-1-yl)-6-methoxypurine] | > 100 | 49 (≈ 183 µM) | –
– | – | 150 to 152 | CCOc1nc(N)nc2c1ncn2CCC(CO)CO [Example 16, 2-Amino-6-ethoxy-9-(4-hydroxy-3-hydroxymethylbut-1-yl)purine] | – | – | –
– | – | 146 to 147.5 | Nc1nc(OCc2ccccc2)c2ncn(CCC(CO)CO)c2n1 [Example 17, 2-Amino-6-benzyloxy-9-(4-hydroxy-3-hydroxymethylbut-1-yl)purine] | – | – | –
– | – | 187 to 190 | Nc1nc(N)c2ncn(CCC(CO)CO)c2n1 [Example 21, 2,6-Diamino-9-(4-hydroxy-3-hydroxymethylbut-1-yl)purine] | – | – | –
> 100 | > 100 | – | CCC(=O)OCC(CCn1cnc2c(=O)[nH]c(N)nc21)COC(=O)CC [Example 23, 9-(4-Propionyloxy-3-propionyloxymethylbut-1-yl)guanine] | 25 (≈ 68.4 µM) | 85 (≈ 233 µM) | –
> 100 | > 100 | – | CCC(=O)Nc1nc2c(ncn2CCC(COC(=O)CC)COC(=O)CC)c(=O)[nH]1 [Example 24, N^2-Propionyl-9-(4-propionyloxy-3-propionyloxymethyl-but-1-yl)guanine] | > 100 | 65 (≈ 154 µM) | –
1.9 (≈ 4.23 µM) | 1.6 (≈ 3.56 µM) | 198.5 to 201 | CCCCCC(=O)OCC(CCn1cnc2c(=O)[nH]c(N)nc21)COC(=O)CCCCC [Example 25, 9-(4-Hexanoyloxy-3-hexanoyloxymethylbut-1-yl)guanine] | 1 (≈ 2.22 µM) | 0.9 (≈ 2 µM) | –
– | – | 195 to 198 | Nc1nc2c(ncn2CCC(COC=O)COC=O)c(=O)[nH]1 [Example 26, 9-(4-Formyloxy-3-formyloxymethylbut-1-yl)guanine] | – | – | –
13 (≈ 29.5 µM) | 2.8 (≈ 6.34 µM) | – | Nc1nc2c(ncn2CCC(COC(=O)n2ccnc2)COC(=O)n2ccnc2)c(=O)[nH]1 [Example 27, 9-[4-(N-Imidazolylcarbonyloxy)-3-(N-imidazolylcarbonyloxymethyl)-but-1-yl]guanine] | 1.5 (≈ 3.4 µM) | 5.7 (≈ 12.9 µM) | –
– | – | 225 to 237 | CC(C)(C)C(=O)OCC(CCn1cnc2c(=O)[nH]c(N)nc21)COC(=O)C(C)(C)C [Example 30, 9-(4-Pivalyloxy-3-pivalyloxymethylbut-1-yl)guanine] | – | – | –
95 (≈ 266 µM) | – | 156 to 168 | Nc1nc2c(ncn2CCC(CO)COC(=O)c2ccccc2)c(=O)[nH]1 (stereo not shown) [Example 32, 9-(4-Benzoyloxy-3-hydroxymethylbut-1-yl)guanine] | 3 (≈ 8.39 µM) | – | –
– | – | 179 to 181 | CCCCCC(=O)OCC(CO)CCn1cnc2c(=O)[nH]c(N)nc21 (stereo not shown) [Example 33, 9-(4-Hexanoyloxy-3-hydroxymethylbut-1-yl)guanine] | – | – | –
16 (≈ 32.5 µM) | – | 183 to 191 | CCCCCCCCCCCCCCCC(=O)OCC(CO)CCn1cnc2c(=O)[nH]c(N)nc21 (stereo not shown) [Example 34, 9-(4-Hexadecanoyloxy-3-hydroxymethylbut-1-yl)guanine] | 2 (≈ 4.07 µM) | – | –
– | – | – | N.N.Nc1nc2c(ncn2CCC(CO)COP(=O)(O)O)c(=O)[nH]1 (stereo not shown) [Example 35, 9-(4-Hydroxy-3-hydroxymethylbut-1-yl)guanine 4′-Phosphate Diammonium Salt] | – | – | Concentration of Example 4 in Blood [5]: 1100 ng/mL
– | – | 143 to 146 | CC(=O)Nc1nc2c(ncn2CCC(CO)CO)c(=O)[nH]1 [Example 36, N^2-Acetyl-9-(4-hydroxy-3-hydroxymethylbut-1-yl)guanine] | – | – | –
– | – | 86 to 88 | CCCCCC(=O)Nc1nc2c(ncn2CCC(CO)CO)c(=O)[nH]1 [Example 37, N^2-Hexanoyl-9-(4-hydroxy-3-hydroxymethylbut-1-yl)guanine] | – | – | –
– | – | 111.5 to 113.5 | CC(C)Oc1nc(N)nc2c1ncn2CCC(CO)CO [Example 38, 2-Amino-9-(4-hydroxy-3-hydroxymethylbut-1-yl)-6-isopropoxypurine] | – | – | –
– | – | 173 to 175 | Nc1nc(Oc2ccccc2)c2ncn(CCC(CO)CO)c2n1 [Example 39, 2-Amino-9-(4-hydroxy-3-hydroxymethylbut-1-yl)-6-phenoxypurine] | – | – | –

Compound | IC50 [1] [µg/mL] | IC50 [3] [µg/mL] | melting point [°C] | IC50 [2] [µg/mL] | IC50 [4] [µg/mL] | also measured
CC(=O)OCC(CCn1cnc2c(=O)[nH]c(N)nc21)COC(C)=O [Example 22, 9-(4-Acetoxy-3-acetoxymethylbut-1-yl)guanine] | > 100 | > 100 | 202 to 205 | > 100 | 83 (≈ 246 µM) | –
CC(=O)OCC(CO)CCn1cnc2c(=O)[nH]c(N)nc21 (stereo not shown) [Example 31, 9-(4-Acetoxy-3-hydroxymethylbut-1-yl)guanine] | 24 (≈ 81.3 µM) | – | 194 to 200 | 10 (≈ 33.9 µM) | – | –
